Earlier results in patent US6811840B1, “Decorative transfer process” (Stahls' Inc., priority 1996, dated 2004).

SMILES: CCCCCNc1ccc(NCCCCC)c2c1C(=O)c1ccccc1C2=O [Oil Blue N]
- solubility in water (in words): insoluble in water

SMILES: Cc1ccccc1/N=N/c1ccc(/N=N/c2c(O)ccc3ccccc23)c(C)c1 [Oil Red 234]
- solubility in water (in words): insoluble in water

SMILES: CC1(C)Nc2cccc3c(N=Nc4ccc(N=Nc5ccccc5)c5ccccc45)ccc(c23)N1 [Sudan Black X60]
- solubility in water (in words): insoluble in water

SMILES: CCCCNc1ccc(NCCCC)c2c1C(=O)c1ccccc1C2=O [Sudan Blue 670]
- solubility in water (at 20° C.): less than 1 gram of dye per liter of water

SMILES: Oc1ccc2ccccc2c1N=Nc1ccccc1 [Sudan Orange 220]
- solubility in water (in words): insoluble in water
